Results published in PubChem BioAssay AID1963860 (Molecular Pharmacology Branch, DTP, NCI, 2024).

Tested on: CN0375-F725-PDC KRAS spheroid viability
Assay: Anticancer human tumor CN0375-F725-PDC patient-derived colon carcinoma cell line growth inhibition [KRAS2]
Settings: spheroids with HUVEC and MSC; for viability, T/C: stronger effect = lower value
How it was run: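 KRAS-mutant tumor cells were grown as spheroids with HUVEC endothelial cells and human MSCs as stroma. Targeted agents were tested alone and with KRAS pathway inhibitors. Doses started at or near clinical Cmax, or 10 microM, descending half-log.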

[1] = curve of first compound, second compound 0.1 µM
[2] = curve of first compound, second compound 0.316 µM
[3] = curve of first compound, second compound 1 µM
[4] = curve of first compound, second compound 3.16 µM
[5] = curve of first compound, second compound 10 µM
[6] = second compound 0.1 µM, first compound 0.0316 µM
[7] = second compound 0.1 µM, first compound 0.1 µM
[8] = second compound 0.1 µM, first compound 0.316 µM
[9] = second compound 0.1 µM, first compound 1 µM
[10] = second compound 0.1 µM, first compound 3.16 µM
[11] = second compound 0.1 µM, first compound 10 µM
[12] = second compound 0.316 µM, first compound 0.0316 µM
[13] = second compound 0.316 µM, first compound 0.1 µM
[14] = second compound 0.316 µM, first compound 0.316 µM
[15] = second compound 0.316 µM, first compound 1 µM
[16] = second compound 0.316 µM, first compound 3.16 µM
[17] = second compound 0.316 µM, first compound 10 µM
[18] = second compound 1 µM, first compound 0.0316 µM
[19] = second compound 1 µM, first compound 0.1 µM
[20] = second compound 1 µM, first compound 0.316 µM
[21] = second compound 1 µM, first compound 1 µM
[22] = second compound 1 µM, first compound 3.16 µM
[23] = second compound 1 µM, first compound 10 µM
[24] = second compound 3.16 µM, first compound 0.0316 µM
[25] = second compound 3.16 µM, first compound 0.1 µM
[26] = second compound 3.16 µM, first compound 0.316 µM
[27] = second compound 3.16 µM, first compound 1 µM
[28] = second compound 3.16 µM, first compound 3.16 µM
[29] = second compound 3.16 µM, first compound 10 µM
[30] = second compound 10 µM, first compound 0.0316 µM
[31] = second compound 10 µM, first compound 0.1 µM
[32] = second compound 10 µM, first compound 0.316 µM
[33] = second compound 10 µM, first compound 1 µM
[34] = second compound 10 µM, first compound 3.16 µM
[35] = second compound 10 µM, first compound 10 µM
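Also: spheroids exposed to agents for 7 days.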

## Cn1nccc1Nc1nccc(-c2cc3c(s2)C(C)(C)N(CCN2CCOCC2)C3=O)n1 + COc1cc2nc(C)nc(NC(C)c3cc(N)cc(C(F)(F)F)c3)c2cc1OC1CCOC1
[1]
  IC50: 2530 nM
[2]
  IC50: 2200 nM
[3]
  IC50: 1570 nM
[4]
  IC50: 487 nM
[5]
  IC50: < 31.6 nM
[6]
  viability, T/C: 96.5%
[7]
  viability, T/C: 85.8%
[8]
  viability, T/C: 68.7%
[9]
  viability, T/C: 59.9%
[10]
  viability, T/C: 47.2%
[11]
  viability, T/C: 41.6%
[12]
  viability, T/C: 88.8%
[13]
  viability, T/C: 83.2%
[14]
  viability, T/C: 67.2%
[15]
  viability, T/C: 59.9%
[16]
  viability, T/C: 45.2%
[17]
  viability, T/C: 39.6%
[18]
  viability, T/C: 92.9%
[19]
  viability, T/C: 80.5%
[20]
  viability, T/C: 63.8%
[21]
  viability, T/C: 53.2%
[22]
  viability, T/C: 46.1%
[23]
  viability, T/C: 37.6%
[24]
  viability, T/C: 75.6%
[25]
  viability, T/C: 68.8%
[26]
  viability, T/C: 53.8%
[27]
  viability, T/C: 41.6%
[28]
  viability, T/C: 35.1%
[29]
  viability, T/C: 28.2%
[30]
  viability, T/C: 11.9%
[31]
  viability, T/C: 13.1%
[32]
  viability, T/C: 10.9%
[33]
  viability, T/C: 8.43%
[34]
  viability, T/C: 4.35%
[35]
  viability, T/C: 1.87%

## CCNC(=O)CC1N=C(c2ccc(Cl)cc2)c2cc(OC)ccc2-n2c(C)nnc21 (configuration not stated)
Compound 0.0316 µM
  viability, T/C: 100% [middle of 5 runs]
Compound 0.1 µM
  viability, T/C: 97.1% [middle of 5 runs]
Compound 0.316 µM
  viability, T/C: 90.4% [middle of 5 runs]
Compound 1 µM
  viability, T/C: 84.2% [middle of 5 runs]
Compound 3.16 µM
  viability, T/C: 74.3% [middle of 5 runs]
Compound 10 µM
  viability, T/C: 58.6% [middle of 5 runs]
Curve of compound
  IC50: > 10000 nM

## CC1COCCN1c1cc(-c2ccnn2C)c2ccnc(-c3ccn[nH]3)c2n1 (configuration not stated) + CNCc1ccccc1-c1csc(C(C)Nc2nc(C)nc3cc(OC)c(OC)cc23)c1
[1]
  IC50: > 3160 nM
[2]
  IC50: 3100 nM
[3]
  IC50: 127 nM
[4]
  IC50: < 10 nM
[5]
  IC50: < 10 nM
Second compound 0.1 µM, first compound 0.01 µM
  viability, T/C: 97.8%
[6]
  viability, T/C: 88.5%
[7]
  viability, T/C: 80.7%
[8]
  viability, T/C: 76.2%
[9]
  viability, T/C: 68%
[10]
  viability, T/C: 52.1%
Second compound 0.316 µM, first compound 0.01 µM
  viability, T/C: 92%
[12]
  viability, T/C: 89.7%
[13]
  viability, T/C: 74.1%
[14]
  viability, T/C: 70%
[15]
  viability, T/C: 59.4%
[16]
  viability, T/C: 49.5%
Second compound 1 µM, first compound 0.01 µM
  viability, T/C: 63.5%
[18]
  viability, T/C: 64.3%
[19]
  viability, T/C: 44.1%
[20]
  viability, T/C: 45.1%
[21]
  viability, T/C: 39%
[22]
  viability, T/C: 23.5%
Second compound 3.16 µM, first compound 0.01 µM
  viability, T/C: 0.32%
[24]
  viability, T/C: 0.28%
[25]
  viability, T/C: 0.36%
[26]
  viability, T/C: 0.41%
[27]
  viability, T/C: 0.44%
[28]
  viability, T/C: 0.54%
Second compound 10 µM, first compound 0.01 µM
  viability, T/C: 0.45%
[30]
  viability, T/C: 0.24%
[31]
  viability, T/C: 0.19%
[32]
  viability, T/C: 0.24%
[33]
  viability, T/C: 0.24%
[34]
  viability, T/C: 0.21%

## COC(=O)c1ccc2c(C(=Nc3ccc(N(C)C(=O)CN4CCN(C)CC4)cc3)c3ccccc3)c(O)[nH]c2c1 + C=CC(=O)N1CCN(c2nc(=O)n(-c3c(C)ccnc3C(C)C)c3nc(-c4c(O)cccc4F)c(F)cc23)C(C)C1
[1]
  IC50: 3690 nM
[2]
  IC50: 2350 nM
[3]
  IC50: 1780 nM
[4]
  IC50: 1860 nM
[5]
  IC50: 1540 nM
[6]
  viability, T/C: 98.2%
[7]
  viability, T/C: 100%
[8]
  viability, T/C: 95.3%
[9]
  viability, T/C: 94.8%
[10]
  viability, T/C: 57.7%
[11]
  viability, T/C: 0.25%
[12]
  viability, T/C: 104%
[13]
  viability, T/C: 103%
[14]
  viability, T/C: 93.8%
[15]
  viability, T/C: 96.1%
[16]
  viability, T/C: 34.2%
[17]
  viability, T/C: 0.2%
[18]
  viability, T/C: 106%
[19]
  viability, T/C: 108%
[20]
  viability, T/C: 96.3%
[21]
  viability, T/C: 88.1%
[22]
  viability, T/C: 12.5%
[23]
  viability, T/C: 0.2%
[24]
  viability, T/C: 104%
[25]
  viability, T/C: 106%
[26]
  viability, T/C: 102%
[27]
  viability, T/C: 90%
[28]
  viability, T/C: 15.7%
[29]
  viability, T/C: 0.22%
[30]
  viability, T/C: 97.9%
[31]
  viability, T/C: 98.2%
[32]
  viability, T/C: 87.1%
[33]
  viability, T/C: 73%
[34]
  viability, T/C: 12.3%
[35]
  viability, T/C: 0.26%
